Measurements: patent US10598653B2, “Methods of blocking cancer stem cell growth” (Bionomics Inc., priority 2011, dated 2020)

B1: R-spondin 1: R-spondin family Wnt-pathway modulator protein, purchased from R& D systems (protein, UniProt Q2MKA7 21-263, looked up)
R-spondin-1: SRGIKGKRQRRISAEGSQACAKGCELCSEVNGCLKCSPKLFILLERNDIRQVGVCLPSCPPGYFDARNPDMNKCIKCKIEHCEACFSHNFCTKCKEGLYLHKGRCYPACPEGSSAANGTMECSSPAQCEMSEWSPWGPCSKKQQLCGFRRGSEERTRRVLHAPVGDHAACSDTKETRRCTVRRVPCPEGQKRRKGGQGRRENANRNLARKESKEAGAGSRRRKGQQQQQQQGTVGPLTSAGPA

Key:
[1] = test system: CT1 primary colon tumor xenograft; assay: CT1 primary colon tumor xenograft, combination with Irinotecan; type: in vivo, SCID beige female mice; conditions: 10 mg/kg IP once per day for the first 5 days
Procedure: Single agent in vivo efficacy of murine antibodies 14F7.1, 18G7.1, 5B10.1, 14A8.1, 1B3.5 was evaluated in a primary colon tumor xenograft model system using CT1 primary xenograft cells. CT1 is a primary colorectal (CRC) in vivo xenograft tumor established from a fresh CRC patient tumor sample. The mutational status was determined by Ion Torrent deep sequencing to identify oncogene mutations. Approximately 5-15% of CT1 tumors express GPR49. SCID beige female mice were inoculated with CT1 tumor cells and monitored for tumor growth. Mice were randomized at day 0 into groups of 10 when mean tumor volume reached 175 mm^3. Chemotherapeutic Irinotecan was administered IP at 10 mg/kg once per day for the first 5 days. The antibodies were administered intraperitoneally (i.p.) at 15 mg/kg administered twice weekly for 4 weeks. Tumors were measured at the indicated intervals post-inoculation for total tumor volume.

[2] = test system: colon tumor cells re-implanted in secondary recipients; assay: Secondary transplant tumor formation after GPR49 mAb+irinotecan; type: in vivo, mice; conditions: 140 day follow-up
From the text: Isolated tumor cells from control or GPR49 mAb+irinotecan treated tumors from the in vivo study outlined in Example 3 were harvested, pooled, dissociated and re-implanted in a limiting dilution secondary transplant assay to measure cancer stem cell frequency. For each treatment group, 8 mice were implanted with 10, 30, 100 cells. […]

GPR49-Fc = biological target: T1, GPR49-Fc (Homo sapiens, UniProt O75473); assay: Solution affinity surface plasmon resonance of RSPO-1 on GPR49-Fc; conditions: initial binding rates, GPR49-Fc competition
T1 construct: FLAG (C)
T1 sequence (O75473 with tags, fused parts or gaps): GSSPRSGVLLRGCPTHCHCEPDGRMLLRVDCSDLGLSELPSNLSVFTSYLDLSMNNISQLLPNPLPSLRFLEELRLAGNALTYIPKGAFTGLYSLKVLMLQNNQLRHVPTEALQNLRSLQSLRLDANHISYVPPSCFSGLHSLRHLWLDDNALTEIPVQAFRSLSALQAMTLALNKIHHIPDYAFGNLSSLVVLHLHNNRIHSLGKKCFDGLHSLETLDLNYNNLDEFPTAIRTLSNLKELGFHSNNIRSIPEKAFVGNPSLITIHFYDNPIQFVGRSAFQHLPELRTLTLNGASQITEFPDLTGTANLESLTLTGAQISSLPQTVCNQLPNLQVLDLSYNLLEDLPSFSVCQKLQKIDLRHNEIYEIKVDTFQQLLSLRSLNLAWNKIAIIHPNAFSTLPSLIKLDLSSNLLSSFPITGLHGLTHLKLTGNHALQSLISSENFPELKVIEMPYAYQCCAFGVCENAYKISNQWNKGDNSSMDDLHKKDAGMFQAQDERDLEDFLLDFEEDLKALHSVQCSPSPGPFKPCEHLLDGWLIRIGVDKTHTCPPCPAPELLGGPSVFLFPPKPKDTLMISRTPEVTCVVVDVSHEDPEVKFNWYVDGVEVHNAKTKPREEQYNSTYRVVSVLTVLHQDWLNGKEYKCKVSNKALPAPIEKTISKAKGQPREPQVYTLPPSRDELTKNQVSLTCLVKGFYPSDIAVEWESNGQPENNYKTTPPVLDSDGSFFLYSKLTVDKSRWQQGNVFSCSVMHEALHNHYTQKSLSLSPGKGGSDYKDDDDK
Procedure: Methods: Binding of RSPO to GPR49 was analyzed using solution affinity surface plasmon resonance (Day E S, et al. Biochemistry. 2005 Feb. 15; 44(6):1919-31). The method utilizes conditions of so-called “mass-transport-limited” binding, in which the initial rate of ligand binding (protein binding to the sensor chip) is proportional to the concentration of ligand in solution (BIApplications Handbook (1994) Chapter 6: Concentration measurement, pp 6-1-6-10, Pharmacia Biosensor AB). Under these conditions, binding of the soluble analyte (protein flowing over chip surface) to the immobilized protein on the chip is fast compared to the diffusion of the analyte into the dextran matrix on the chip surface. Therefore, the diffusion properties of the analyte and the concentration of analyte in solution flowing over the chip surface determine the rate at which analyte binds to the chip. In this experiment, the concentration of free RSPO-1 in solution is determined by the initial rate of binding to a CM5 Biacore chip containing immobilized GPR49-Fc. Into these RSPO-1 solutions were titrated the competing GPR49-Fc.

Molecule	tumor inhibition, Irinotecan alone [1] [%]	average tumor size [2] [mm^3]	binding profile (GPR49-Fc)
CCc1c2c(nc3ccc(OC(=O)N4CCC(N5CCCCC5)CC4)cc13)-c1cc3c(c(=O)n1C2)COC(=O)[C@]3(O)CC [Irinotecan]	45	1729	
B1			bi-phasic binding profile
